ChEMBL document CHEMBL1201862, “PubChem BioAssay data set” (2004)
The source made the active and inactive calls.

Experiments:
[1] = OVCAR8 cell viability loss – plate reader, dry powder samples, PAX8 project, dose response (AID 743197); format: functional, cell-based; conditions: OVCAR-8
[2] = target: Paired box protein Pax-8 (Homo sapiens, UniProt Q06710); test: PAX8 transcriptional activity inhibition in RMG-I – RMG-I cells, luciferase, cherry-pick, dose response (AID 687027); format: functional, cell-based;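 further: luciferase reporter driven by Pax8 target thyroperoxidase promoter measured by SteadyGlo luminescence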
Paired box protein Pax-8, sequence (Q06710 whole entry): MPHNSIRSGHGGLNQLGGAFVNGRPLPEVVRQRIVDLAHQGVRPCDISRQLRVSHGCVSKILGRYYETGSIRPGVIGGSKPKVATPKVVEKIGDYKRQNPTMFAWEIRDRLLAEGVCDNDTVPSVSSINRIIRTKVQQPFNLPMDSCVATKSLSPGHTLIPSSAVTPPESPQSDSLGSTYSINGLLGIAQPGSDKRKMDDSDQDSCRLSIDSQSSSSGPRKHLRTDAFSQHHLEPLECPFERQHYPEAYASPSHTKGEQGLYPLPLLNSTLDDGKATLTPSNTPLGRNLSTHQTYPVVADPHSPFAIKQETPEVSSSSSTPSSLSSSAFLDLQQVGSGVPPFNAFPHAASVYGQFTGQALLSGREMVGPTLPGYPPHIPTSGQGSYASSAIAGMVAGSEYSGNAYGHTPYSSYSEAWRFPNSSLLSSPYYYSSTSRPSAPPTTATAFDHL

[3] = general cell-killing toxicity readout – plate reader, dry powder samples, cytotoxicity control for PAX8 inhibitor project, dose response (AID 743021); format: functional, cell-based
[4] = IGROV1 cell killing – plate reader, dry powder samples, PAX8 inhibitor project, dose response (AID 743043); format: functional, cell-based; conditions: IGROV-1
[5] = OVCAR-3 cell viability loss – plate reader, dry powder samples, PAX8 inhibitor project, dose response (AID 743044); format: functional, cell-based
[6] = A2780 cell killing – plate reader, dry powder samples, cytotoxicity control, dose response (AID 743046); format: functional, cell-based
[7] = toxicity toward immortalized ovarian surface epithelium – cell-based, plate reader, dry powder samples, cytotoxicity control for PAX8 inhibitor project, dose response (AID 743045); format: functional
[8] = viability loss in CEM21 cells – cell-based, CellTiter-Glo luminescence, cherry-picked, cytotoxicity control for viral fusion inhibitor project, dose response (AID 652042); format: functional;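 further: potency for signal decrease meaning cytotoxicity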
[9] = blockers of HIV-1 envelope-mediated cell-cell fusion – cherry-pick, dose response (AID 652057); format: functional, cell-based
[10] = blockers of HIV-1 ZM109 envelope-driven cell-cell fusion – HeLa effector, CEM target cells, luciferase, cherry-pick, dose response (AID 652058); format: functional, cell-based;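 further: luciferase signal from HIV-1 Env mediated cell-cell fusion of effector and target cells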
[11] = HIV-1 AD8 envelope cell-cell fusion blockers – cherry-pick, dose response (AID 652062); format: functional, cell-based;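 further: luciferase signal from cell-cell fusion driven by HIV-1 clade B AD8 Env; potency is for inhibitors of fusion seen as a drop in luminescence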
[12] = target: fMet-Leu-Phe receptor (Homo sapiens, UniProt P21462); test: formyl peptide receptor binders – dose response (AID 519); format: functional
fMet-Leu-Phe receptor, sequence (P21462 whole entry): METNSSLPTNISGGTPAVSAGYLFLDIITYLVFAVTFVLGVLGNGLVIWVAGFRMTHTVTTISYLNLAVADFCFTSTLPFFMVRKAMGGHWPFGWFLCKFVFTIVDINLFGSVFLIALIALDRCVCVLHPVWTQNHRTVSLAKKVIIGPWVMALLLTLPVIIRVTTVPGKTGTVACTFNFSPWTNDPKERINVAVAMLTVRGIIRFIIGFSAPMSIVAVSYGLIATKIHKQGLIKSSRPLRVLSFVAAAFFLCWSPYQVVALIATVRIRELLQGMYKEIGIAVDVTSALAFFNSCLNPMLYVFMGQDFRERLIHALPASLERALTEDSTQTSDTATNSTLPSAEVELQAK

[13] = target: NAD-dependent protein deacylase sirtuin-5, mitochondrial (Homo sapiens, UniProt Q9NXA8); test: sirtuin-5 deacylation blockers, concentration series – biochemical, fluorescence imaging, cherry-pick, set 5, dose response (AID 720591);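 further: desuccinylation of succinyl peptide AMC substrate read as fluorescence after trypsin release; potency of inhibitors that lower fluorescence and may act on trypsin instead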
NAD-dependent protein deacylase sirtuin-5, mitochondrial, sequence (Q9NXA8 whole entry): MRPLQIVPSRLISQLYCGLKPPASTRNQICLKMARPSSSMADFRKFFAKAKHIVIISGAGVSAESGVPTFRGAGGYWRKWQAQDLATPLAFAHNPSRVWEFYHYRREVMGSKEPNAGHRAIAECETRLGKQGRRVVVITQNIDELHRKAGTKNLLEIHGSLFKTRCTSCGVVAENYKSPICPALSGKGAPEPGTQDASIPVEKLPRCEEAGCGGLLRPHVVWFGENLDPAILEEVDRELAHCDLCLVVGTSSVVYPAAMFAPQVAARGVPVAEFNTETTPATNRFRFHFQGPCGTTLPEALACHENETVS

[14] = viability loss in A549 lung cancer cells – cell-based, cherry-picks, […], cytotoxicity control, dose response (AID 1053119); format: functional
[15] = blockers of FN fibrillogenesis by fibroblasts – AH1F cells, Alexa488-FN fluorescence, cherry-picks, dose response (AID 1035475); format: functional, cell-based
[16] = viability loss in HepG2 hepatoma cells – cell-based, cherry-picks, set 5, cytotoxicity control, dose response (AID 1053118); format: functional
[17] = viability loss in HEK293 kidney cells – cell-based, cherry-picks, set 5, cytotoxicity control, dose response (AID 1053117); format: functional
[18] = target: 1-phosphatidylinositol 4,5-bisphosphate phosphodiesterase beta-3 (Homo sapiens, UniProt Q01970); test: Fluorescence-based biochemical high throughput dose response assay to identify inhibitors of phospholipase C isozymes (PLC-B3).
1-phosphatidylinositol 4,5-bisphosphate phosphodiesterase beta-3, sequence (Q01970 whole entry): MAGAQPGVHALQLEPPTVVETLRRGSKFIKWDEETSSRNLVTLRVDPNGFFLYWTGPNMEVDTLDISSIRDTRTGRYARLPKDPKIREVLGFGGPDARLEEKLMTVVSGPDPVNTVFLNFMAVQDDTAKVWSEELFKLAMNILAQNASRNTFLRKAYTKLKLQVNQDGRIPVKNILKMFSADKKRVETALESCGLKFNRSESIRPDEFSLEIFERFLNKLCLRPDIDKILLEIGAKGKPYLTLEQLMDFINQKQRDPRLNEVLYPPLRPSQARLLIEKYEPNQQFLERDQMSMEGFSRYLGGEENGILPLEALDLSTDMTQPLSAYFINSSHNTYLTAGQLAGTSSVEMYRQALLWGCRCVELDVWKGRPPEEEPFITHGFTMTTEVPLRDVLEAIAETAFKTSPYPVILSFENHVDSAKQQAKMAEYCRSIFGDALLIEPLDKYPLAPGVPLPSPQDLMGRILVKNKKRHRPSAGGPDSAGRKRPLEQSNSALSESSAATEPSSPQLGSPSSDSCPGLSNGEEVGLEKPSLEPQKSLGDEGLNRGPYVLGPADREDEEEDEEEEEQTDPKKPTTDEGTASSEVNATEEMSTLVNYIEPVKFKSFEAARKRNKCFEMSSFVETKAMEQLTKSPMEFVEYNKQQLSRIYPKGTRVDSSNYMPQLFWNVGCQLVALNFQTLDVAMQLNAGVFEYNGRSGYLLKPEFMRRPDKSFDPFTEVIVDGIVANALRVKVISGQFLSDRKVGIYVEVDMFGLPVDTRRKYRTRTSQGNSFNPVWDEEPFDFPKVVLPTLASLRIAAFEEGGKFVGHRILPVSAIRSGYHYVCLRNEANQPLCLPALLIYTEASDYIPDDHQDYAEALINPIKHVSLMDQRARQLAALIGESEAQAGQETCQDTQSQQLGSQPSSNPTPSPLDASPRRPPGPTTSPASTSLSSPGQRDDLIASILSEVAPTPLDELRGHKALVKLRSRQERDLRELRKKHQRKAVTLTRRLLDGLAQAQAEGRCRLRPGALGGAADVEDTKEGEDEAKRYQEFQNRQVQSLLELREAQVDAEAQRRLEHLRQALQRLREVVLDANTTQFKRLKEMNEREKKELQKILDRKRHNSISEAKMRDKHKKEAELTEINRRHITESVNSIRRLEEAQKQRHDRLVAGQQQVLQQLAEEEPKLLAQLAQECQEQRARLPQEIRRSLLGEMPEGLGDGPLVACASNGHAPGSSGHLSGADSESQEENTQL

[19] = target: 1-phosphatidylinositol 4,5-bisphosphate phosphodiesterase gamma-1 (Homo sapiens, UniProt P19174); test: Counterscreen for inhibitors of phospholipase C isozymes (PLC-B3): Fluorescence-based biochemical high throughput dose response assay to identify inhibitors of phospholipase C isozymes (PLC-gamma1).
1-phosphatidylinositol 4,5-bisphosphate phosphodiesterase gamma-1, sequence (P19174 whole entry): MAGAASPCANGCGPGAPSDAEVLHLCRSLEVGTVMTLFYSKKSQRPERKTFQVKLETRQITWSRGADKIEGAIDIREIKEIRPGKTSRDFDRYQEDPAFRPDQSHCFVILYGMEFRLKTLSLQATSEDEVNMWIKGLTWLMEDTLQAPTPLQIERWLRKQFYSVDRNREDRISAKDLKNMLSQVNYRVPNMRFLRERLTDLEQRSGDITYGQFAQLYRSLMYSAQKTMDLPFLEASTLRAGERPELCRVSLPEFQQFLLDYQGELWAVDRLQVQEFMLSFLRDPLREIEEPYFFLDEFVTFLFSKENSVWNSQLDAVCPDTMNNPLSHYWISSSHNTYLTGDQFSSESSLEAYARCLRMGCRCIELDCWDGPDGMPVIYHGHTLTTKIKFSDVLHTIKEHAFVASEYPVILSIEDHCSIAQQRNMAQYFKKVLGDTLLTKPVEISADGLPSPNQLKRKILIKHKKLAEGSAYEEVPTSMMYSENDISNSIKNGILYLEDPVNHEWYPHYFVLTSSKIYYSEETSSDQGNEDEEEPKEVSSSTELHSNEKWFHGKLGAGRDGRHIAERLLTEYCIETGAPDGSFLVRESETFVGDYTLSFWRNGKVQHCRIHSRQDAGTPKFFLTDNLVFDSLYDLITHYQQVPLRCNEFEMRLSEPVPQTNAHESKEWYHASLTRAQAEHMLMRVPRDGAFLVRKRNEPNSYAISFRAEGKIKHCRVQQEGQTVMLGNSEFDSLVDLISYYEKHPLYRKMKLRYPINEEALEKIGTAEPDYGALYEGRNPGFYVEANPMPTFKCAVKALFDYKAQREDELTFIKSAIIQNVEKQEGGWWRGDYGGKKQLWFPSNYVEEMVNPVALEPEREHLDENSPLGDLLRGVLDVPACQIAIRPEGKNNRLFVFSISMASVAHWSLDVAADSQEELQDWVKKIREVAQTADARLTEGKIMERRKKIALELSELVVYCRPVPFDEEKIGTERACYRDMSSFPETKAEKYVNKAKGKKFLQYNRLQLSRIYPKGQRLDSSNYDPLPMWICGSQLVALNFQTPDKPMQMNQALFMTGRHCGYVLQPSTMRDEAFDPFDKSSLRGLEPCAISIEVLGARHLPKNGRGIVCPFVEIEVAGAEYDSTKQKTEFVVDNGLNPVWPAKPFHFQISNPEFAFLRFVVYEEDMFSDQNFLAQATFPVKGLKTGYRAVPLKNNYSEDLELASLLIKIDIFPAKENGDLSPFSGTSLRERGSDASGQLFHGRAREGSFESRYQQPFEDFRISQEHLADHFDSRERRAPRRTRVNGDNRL

[20] = activation of miR-122 Renilla sensor silencing – cell-based, Huh7 psiCHECK-miR122, Renilla luciferase, cherry-picked, dose response (AID 651956); format: functional;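 further: huh7 hepatoma cells stably carrying a psiCHECK-2 miR-122 sensor plasmid; renilla luciferase signal reporting endogenous miR-122 activity after 48 h compound exposure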
[21] = general mammalian cell viability loss – activator set, cherry-pick, cytotoxicity control for miR-122 modulator project, dose response (AID 720690); format: functional, cell-based;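 further: HEK293T human cells scored for general mammalian cytotoxicity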

SMILES: COc1ccc(-c2ccc3c(c2)[C@H]2[C@H](CCN2S(=O)(=O)c2ccc(F)cc2)[C@H](CO)N3C)cc1
- AC50 [1]: 31.8 µM (active)
- AC50 [2]: 8.98 µM (active)
- AC50 [3]: 63.7 µM (active)
- AC50 [4]: 34.4 µM (active)
- AC50 [5]: 19.3 µM (active)

SMILES: C[C@@H]1CN([C@@H](C)CO)C(=O)Cc2cc(NS(=O)(=O)c3ccccc3)ccc2O[C@H]1CN(C)Cc1ccc(Cl)c(Cl)c1
- AC50 [6]: 24.9 µM (active)
- AC50 [1]: 11.5 µM (active)
- AC50 [2]: 2.42 µM (active)
- AC50 [7]: 10.8 µM (active)
- AC50 [3]: 3.32 µM (active)
- AC50 [4]: 5.66 µM (active)
- AC50 [5]: 11 µM (active)
- AC50 [8]: 20.3 µM (active)
- AC50 [9]: 8.55 µM (active)
- AC50 [10]: 0.289 µM (active)
- AC50 [11]: 1.19 µM (active)

SMILES: CCOc1ccc(C2C(C(=O)c3ccco3)=C(O)C(=O)N2Cc2cccnc2)cc1 (stereo unspecified)
- Ki [12]: 15.3 µM (inactive)

SMILES: CCN(Cc1nc(-c2ccccc2)no1)C(=O)c1ccco1
- AC50 [13]: > 30 µM (inactive)

SMILES: O=S(=O)(c1cccc(F)c1)N1CC[C@@H]2[C@H](CO)Nc3ccc(-c4cccc(F)c4)cc3[C@@H]21
- AC50 [14]: 33.4 µM (active)
- AC50 [15]: > 70 µM (inactive)
- AC50 [16]: 42 µM (active)
- AC50 [17]: 27.2 µM (active)

SMILES: O=S(=O)(c1ccc(Cl)cc1)c1cnc2ccccc2n1
- IC50 [18]: > 123 µM (inactive)
- IC50 [19]: > 123 µM (inactive)

SMILES: CN1C(=O)c2cc(NC(=O)c3ccc(C(F)(F)F)cc3)ccc2OC[C@@H]2O[C@H](CC(=O)NCc3ccc4c(c3)OCO4)CC[C@H]21
- AC50 [20]: 53.6 µM (active)
- AC50 [21]: 34.9 µM (active)
